This passage reports IC50 and melting point results from patent publication US9187426B2, “Organic compounds” (Novartis AG, priority 2008, dated 2015).

The target in series [1] is T1, Stearoyl-CoA Desaturase (SCD1) (Mus musculus, UniProt P13516).
T1 construct: Reactions are started by adding 50 μL of microsomes (1.25 mg/mL); from tissue; host or cells: liver microsomes of male ICR outbred mice on a high-carbohydrate, low-fat diet
T1 sequence (P13516 1-355): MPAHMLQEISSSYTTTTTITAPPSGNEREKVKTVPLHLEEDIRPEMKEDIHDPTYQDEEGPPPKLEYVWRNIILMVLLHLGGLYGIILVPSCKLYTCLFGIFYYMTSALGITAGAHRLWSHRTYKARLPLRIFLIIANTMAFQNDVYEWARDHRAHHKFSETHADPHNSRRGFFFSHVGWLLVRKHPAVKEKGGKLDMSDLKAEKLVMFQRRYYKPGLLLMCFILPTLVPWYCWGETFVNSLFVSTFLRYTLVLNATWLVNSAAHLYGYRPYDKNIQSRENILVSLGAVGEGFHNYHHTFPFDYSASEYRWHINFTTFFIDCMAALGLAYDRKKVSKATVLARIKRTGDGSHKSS
In words: SCD microsomal assay: release of 3H2O from [9,10-3H]stearoyl-CoA in mouse liver microsomes. The series is classed as biochemical. The following applies: 15 min incubation, 25° C. The text has this:
Measuring Stearoyl-CoA Desaturase Inhibition Activity of a Test Compound Using Mouse Liver Microsomes
The identification of compounds of the invention as SCD inhibitors was readily accomplished using the SCD microsomal assay procedure described in Shanklin J. and Summerville C., Proc. Natl. Acad. Sci. USA (1991), Vol. 88, pp. 2510-2514.
Male ICR outbread mice, on a high-carbohydrate, low fat diet, under light halothane (15% in mineral oil) anesthesia are sacrificed by exsanguination during periods of high enzyme activity. Livers are immediately rinsed with cold 0.9% NaCl solution, weighed and minced with scissors. All procedures are performed at 4° C. unless specified otherwise. Livers are homogenized in a solution (1/3 w/v) containing 0.25 M sucrose, 62 mM potassium phosphate buffer (pH 7.0), 0.15 M KCl, 15 mM N-acetyleysteine, 5 mM MgCl2, and 0.1 mM EDTA using 4 strokes of a Potter-Elvehjem tissue homogenizer. The homogenate is centrifuged at 10,400×g for 20 min to eliminate mitochondria and cellular debris. The supernatant is filtered through a 3-layer cheesecloth and centrifuged at 105,000×g for 60 min. The microsomal pellet is gently resuspended in the same homogenization solution with a small glass/teflon homogenizer and stored at −70° C. The absence of mitochondrial contamination is enzymatically assessed. The protein concentration is measured using bovine serum albumin as the standard.
Desaturase activity is measured as the release of ^3H2O from [9,10-^3H]stearoyl-CoA. Reactions per assay point conditions are as follows: 2 μL 1.5 mM stearoyl-CoA, 0.25 μL 1 mCi/mL ^3H stearoyl CoA, 10 μL 20 mM NADH, 36.75 μL 0.1 M PK buffer (K2HPO4/NaH2PO4, pH 7.2). The test compound or control solution is added in a 1 μL volume. Reactions are started by adding 50 μL of microsomes (1.25 mg/mL). The plates are mixed and after 15 min incubation on a heating block (25° C.), the reactions are stopped by the addition of 10 μL 60% PCA. An aliquot of 100 μL is then transferred to a filter plate pretreated with charcoal and the plate centrifuged at 4000 rpm for 1 minute. The flow through containing the ^3H2O released by the SCD1 desaturation reaction is added to scintillation fluid and the radioactivity measured in a Packard TopCount. The data is analysed to identify the IC50 for test compounds and reference compounds.

Where a name gives a salt, the structure may show the parent alone.

As usually defined, the IC50 is the concentration needed to halve the response being measured. A word on the melting point: it is the temperature, or range, at which the solid turns liquid. Consider `COc1cccc(C(=O)Nc2cc(C(=O)NCc3ccccc3)ccn2)c1` [Example 6.4, N-benzyl-2-(3-methoxybenzamido)isonicotinamide], for which the melting point fell in the range of 95 to 96 °C. Also, inhibition in series [1] was half-maximal at 130 nM (IC50).

Regarding `O=C(NCc1ccccc1)c1ccnc(NC(=O)c2cc(F)cc(F)c2)c1` [Example 6.8, N-benzyl-2-(3,5-difluorobenzamido)isonicotinamide], the melting point lay within 185 to 187 °C. Also, in series [1], inhibition was half-maximal at 410 nM (IC50). Compound `CN(C)c1ccc(C(=O)Nc2cc(C(=O)NCc3ccccc3)ccn2)cc1` [Example 6.11, N-benzyl-2-(4-(dimethylamino)benzamido)isonicotinamide] displayed a melting point of 160 to 165 °C. The compound further came in with an IC50 in series [1] of 20 nM. In the case of `O=C(Nc1cc(-c2nc(Cc3ccccc3)c[nH]2)ccn1)c1ccccc1` [Example 10.2, N-(4-(4-benzyl-1H-imidazol-2-yl)pyridin-2-yl)benzamide], the melting point is 110 to 112 °C. The compound further came in with an IC50 in series [1] of 170 nM. In turn, `O=C(NCc1cocn1)c1ccnc(N2CCN(Cc3ccc(F)cc3)C2=O)c1` [Example 14, 2-(3-(4-fluorobenzyl)-2-oxoimidazolidin-1-yl)-N-(oxazol-4-ylmethyl)isonicotinamide] yielded a melting point of 197 to 199 °C. The compound further registered an IC50 in series [1] of 200 nM. Taken in the same sequence, the figures for `Cc1cnc(CNC(=O)c2ccnc(N3CCN(Cc4ccc(F)cc4)C3=O)c2)cn1` [Example 14.2, 2-(3-(4-fluorobenzyl)-2-oxoimidazolidin-1-yl)-N-((5-methylpyrazin-2-yl)methyl)isonicotinamide] were 169 to 171 °C and 80 nM. In the case of `Cn1cnc(CNC(=O)c2ccnc(N3CCN(Cc4ccc(F)cc4)C3=O)c2)c1` [Example 14.5, 2-(3-(4-fluorobenzyl)-2-oxoimidazolidin-1-yl)-N-((1-methyl-1H-imidazol-4-yl)methyl)isonicotinamide], the melting point lay in the range of 174 to 176 °C. The compound also showed an IC50 in series [1] of 190 nM. `Cc1cc(CNC(=O)c2ccnc(N3CCN(Cc4ccc(F)cc4)C3=O)c2)no1` [Example 14.10, 2-(3-(4-fluorobenzyl)-2-oxoimidazolidin-1-yl)-N-((5-methylisoxazol-3-yl)methyl)isonicotinamide] registered a melting point of 153 to 155 °C. This compound also showed an IC50 in series [1] of 260 nM.

`O=C(NCc1ccccn1)c1ccnc(N2CCN(Cc3ccc(F)cc3)C2=O)c1` [Example 15.3, 2-(3-(4-fluorobenzyl)-2-oxoimidazolidin-1-yl)-N-(pyridin-2-ylmethyl)isonicotinamide dihydrochloride] gave an IC50 in series [1] of 70 nM. In turn, `O=C(NCc1ccc(F)cc1)c1ccnc(N2CCN(Cc3ccc(F)cc3)C2=O)c1` [Example 15.4, N-(4-fluorobenzyl)-2-(3-(4-fluorobenzyl)-2-oxoimidazolidin-1-yl)isonicotinamide] returned a melting point of 173 to 175 °C. Further, half-maximal inhibition in series [1] (IC50) was put at 20 nM.

Compound `O=C(NCc1ccncc1)c1ccnc(N2CCN(CC3CC3)C2=O)c1` [Example 15.11, 2-(3-(cyclopropylmethyl)-2-oxoimidazolidin-1-yl)-N-(pyridin-4-ylmethyl)isonicotinamide] gave a melting point of 160 to 162 °C. This compound also yielded an IC50 in series [1] of 670 nM. Turning to `O=C(NCc1ccc(F)c(F)c1)c1ccnc(N2CCN(Cc3cccnc3)C2=O)c1` [Example 15.17, N-(3,4-difluorobenzyl)-2-(2-oxo-3-(pyridin-3-ylmethyl)imidazolidin-1-yl)isonicotinamide], the melting point lay within 178 to 180 °C. Besides, in series [1], inhibition was half-maximal at 260 nM (IC50). Taken in the same sequence, the figures for `O=C(NCc1nccs1)c1ccnc(N2CCN(Cc3ccc(C(F)(F)F)cc3)C2=O)c1` [Example 23, 2-(2-Oxo-3-(4-(trifluoromethyl)benzyl)imidazolidin-1-yl)-N-(thiazol-2-ylmethyl)isonicotinamide] were 139 to 141 °C and 10 nM.

`Cc1cc(CNC(=O)c2ccnc(-n3cnn(Cc4ccc(F)c(F)c4)c3=O)c2)no1` [Example 24, 2-(1-(3,4-Difluorobenzyl)-5-oxo-1H-1,2,4-triazol-4(5H)-yl)-N-((5-methylisoxazol-3-yl)methyl)-isonicotinamide]: the melting point lay within 160 to 161 °C. This compound gave an IC50 in series [1] of 20 nM. For `O=C(NCc1ccccn1)c1ccnc(N2CCN(Cc3ccc(F)c(F)c3)C2=O)c1` [Example 25, 2-(3-(3,4-Difluorobenzyl)-2-oxoimidazolidin-1-yl)-N-(pyridin-2-ylmethyl)-isonicotinamide], the melting point lay in the range of 99 to 101 °C. This compound also returned an IC50 in series [1] of 20 nM.

With `O=C(NCc1ccccn1)c1ccnc(N2CCN(Cc3ccc(C(F)(F)F)cc3)C2=O)c1` [Example 26.12, 2-(2-Oxo-3-(4-(trifluoromethyl)benzyl)imidazolidin-1-yl)-N-(pyridin-2-ylmethyl)-isonicotinamide], the melting point was 161 to 163 °C. Also, in series [1], the IC50 came out at 10 nM.

In turn, `Cc1cc(CNC(=O)c2ccnc(N3CCN(Cc4ccc(OC(F)(F)F)cc4)C3=O)c2)no1` [Example 26.13, N-((5-Methylisoxazol-3-yl)methyl)-2-(2-oxo-3-(4-(trifluoromethoxy)-benzyl)imidazolidin-1-yl)isonicotinamide] yielded a melting point of 129 to 130 °C. Further, the IC50 in series [1] was found to be 10 nM. Taken in the same sequence, the figures for `O=C(NCc1ccccn1)c1ccnc(N2CCN(Cc3ccc(OC(F)(F)F)cc3)C2=O)c1` [Example 26.15, 2-(2-Oxo-3-(4-(trifluoromethoxy)benzyl)imidazolidin-1-yl)-N-(pyridin-2-ylmethyl)-isonicotinamide] were 123 to 125 °C and 50 nM. As for `Cc1cc(CNC(=O)c2ccnc(N3CCN(Cc4ccc(C(F)(F)F)cc4)C3=O)c2)no1` [Example 26.18, N-((5-Methylisoxazol-3-yl)methyl)-2-(2-oxo-3-(4-(trifluoromethyl)-benzyl)imidazolidin-1-yl)isonicotinamide], the melting point was in the range of 153 to 155 °C. In series [1], the IC50 is 10 nM. Consider `O=C(NCc1cncs1)c1ccnc(N2CCN(Cc3ccc(C(F)(F)F)cc3)C2=O)c1` [Example 26.19, 2-(2-Oxo-3-(4-(trifluoromethyl)benzyl)imidazolidin-1-yl)-N-(thiazol-5-ylmethyl)-isonicotinamide], for which the melting point lay in the range of 163 to 165 °C. The compound further had an IC50 in series [1] of 10 nM. The compound `Cc1cc(CNC(=O)c2ccnc(-n3cnn(Cc4ccc(F)cc4)c3=O)c2)no1` [Example 26.22, 2-(1-(4-Fluorobenzyl)-5-oxo-1H-1,2,4-triazol-4(5H)-yl)-N-((5-methylisoxazol-3-yl)methyl)-isonicotinamide] gave a melting point of 198 to 200 °C. This compound also returned an IC50 in series [1] of 10 nM. Compound `Cc1cc(CNC(=O)c2ccnc(N3CCN(Cc4ccc(F)c(F)c4)C3=O)c2)no1` [Example 26.23, 2-(3-(3,4-Difluorobenzyl)-2-oxoimidazolidin-1-yl)-N-((5-methylisoxazol-3-yl)methyl)-isonicotinamide] yielded a melting point of 153 to 155 °C. Also, the midpoint of inhibition in series [1], the IC50, lay at 10 nM.

The compound `O=C(NCc1ccccn1)c1ccnc(-n2cnn(Cc3ccc(F)cc3)c2=O)c1` [Example 26.27, 2-(1-(4-Fluorobenzyl)-5-oxo-1H-1,2,4-triazol-4(5H)-yl)-N-(pyridin-2-ylmethyl)-isonicotinamide] returned a melting point of 181 to 183 °C. The compound further came in with an IC50 in series [1] of 120 nM.

In series [1], `O=C(NCc1ccccn1)c1ccnc(-n2cnn(Cc3ccc(F)c(F)c3)c2=O)c1` [Example 26.29, 2-(1-(3,4-Difluorobenzyl)-5-oxo-1H-1,2,4-triazol-4(5H)-yl)-N-(pyridin-2-ylmethyl)-isonicotinamide] displayed an IC50 of 30 nM.

Consider `NC(=O)c1ccnc(N2CCN(Cc3ccc(F)c(F)c3)C2=O)c1` [Example 26.30, 2-(3-(3,4-Difluorobenzyl)-2-oxoimidazolidin-1-yl)isonicotinamide], for which the melting point lay in the range of 195 to 198 °C. This compound also registered an IC50 in series [1] of 1100 nM.
